Test results as given in patent US6576671B1, “Aminotetralin derivatives for the therapy of cardiovascular diseases” (Chiese Farmaceutici S.p.A., priority 1999, dated 2003).

Legend:
α2 adrenergic receptors = experiment: α2 adrenergic receptor binding, [3H]-rauwolscine, rat cerebral cortex; details: rat cerebral cortex; read-out: IC50, 50% inhibition of [3H]-rauwolscine specific binding
Description: The affinity of CHF 1024 and CHF 1035 for α2, adrenergic receptors was tested on human platelets and on rat cerebral cortex.
The antagonist [^3H]-rauwolscine was used as marker of the receptor, being its binding reversible, saturable and specific.
Values are expressed as IC50=molar concentration of drug required for 50% inhibition of [^3H]-rauwolscine specific binding.

α2-adrenergic receptors = experiment: α2-adrenergic activity in isolated neuronally-stimulated rat vas deferens
[1] = biological target: peripheral DA2 dopaminergic receptors (Oryctolagus cuniculus, UniProt G1T1Q0); experiment: Peripheral DA2 dopaminergic activity in electrically stimulated rabbit rectococcygeus muscle
Excerpt: The activity of CHF 1024 and CHF 1035 on peripheral DA2 dopaminergic receptors has been tested in the electrically stimulated rabbit rectococcygeus muscle.

anesthetized rats = experiment: In vivo cardiovascular effects in anesthetized rats; parameters: species or system rat
Description: Male albino rats (Sprague Dawley, 350-400 g) were anesthetized by sodium pentobarbital (60 mg/kg) and maintained by i.v. infusion (6 mg/h). The trachea was cannulated to facilitate spontaneous respiration and body temperature was maintained at 37 C. Homoiothermic Blanket Control System (Harvard, England).
The right femoral artery was cannulated for arterial blood pressure measurement and left jugular vein or duodenum were cannulated for drug administration. Mean arterial pressure and heart rate were continuously monitored by pressure transducer and medium gain amplifier triggered by the ECG signal, respectively. […]
CHF 1035 was administered intraduodenally (1 mg/kg).
The response to […] was determined in the absence and in the presence of the selective β2-adrenoceptor antagonist ICI 118.551 (0.2 mg/kg i.v.) and the selective DA2-dopaminergic antagonist domperidone (0 3 mg/kg i.v.) both alone and in combination. The antagonists were administered 10 min before the i.d. drug administration.

[2] = tested on: patients with a moderate congestive heart failure (class NYHA II-III); experiment: Randomized double-blind study versus placebo, hemodynamic and neurohumoral parameters; assay type: in vivo, human
Description: In order to investigate the effects of the compound both on the hemodynamic parameters and the neurohumoral pattern, a randomized double-blind study versus placebo was carried out in 18 patients with a moderate congestive heart failure (class NYHA II-III).
Each patient received on 3 consecutive days 2 active doses of CHF 1035 and 1 placebo dose.
The following hemodynamic parameters were evaluated:
pulmonary capillary wedge pressure (PCWP) (mmHg);
cardiac index (CJ) (L/min/m^2);
stroke volume index (SVI) (ml/min/m^2);
systemic vascular resistance (SVR) (dyneseccm^−5);
mean blood pressure (BPm) (mmHg).
The evaluations were carried out by catheterization of the right heart (Swan-Ganz catheter), measuring the hemodynamic parameters of the tested medicament before administration or “pre-dose” (PD) and for the 300 subsequent minutes after the administration or “after-dose” (AD), every 20 minutes for the first 2 hours, then every 60 minutes.
To evaluate the effects of the compound on neurohormones, noradrenaline (NE) (pg/ml) and adrenalin (E) (pg/ml) plasmatic levels were further evaluated, before and 140 minutes after the administration of CHF 1035 and placebo, respectively.

[3] = tested on: patients suffering from NYHA class II-III congestive heart failure; experiment: Add-on therapy study, 28 days, clinical condition and exercise capacity; assay type: in vivo, human
Description: The effects of CHF 1030 as added therapy have been evaluated in patients suffering from NYHA class II-III congestive heart failure due to mild hypertension, or coronary disease, or chronic cardiomyopathy who were on diuretics or diuretics and an angiotensin-converting enzyme inhibitor.
Recruited patients were randomly assigned to added double-blind treatment with placebo or with three different doses of the study drug (5 mg, 10 mg, 15 mg).
The study therapy was started by patients on day 1 and proceeded until day 28 of the study.
The following parameters have been considered to determine the clinical condition of patients:
The functional response to the treatments has been evaluated by exertional tests, the 6-minute walking test and the 130-meter walking test.
For the evaluation of clinical condition, more than 60 symptoms or signs were evaluated.
For statistical purposes scores from signs and symptoms (as applicable) were summed to form clinical compound scorings (CCSs) of pathophysiological importance in congestive heart failure.

[4] = Pharmacological and clinic pharmacological studies of diuresis; details: in vivo
[5] = tested on: plasma and tissue esterases; experiment: Transformation into the desesterified form after administration; assay type: in vivo
[6] = 5 mg, 140 minutes after administration (AD)
[7] = 5 mg, before administration (PD)
[8] = 10 mg, 140 minutes after administration (AD)
[9] = 10 mg, before administration (PD)
[10] = 15 mg, 140 minutes after administration (AD)
[11] = 15 mg, before administration (PD)

peripheral DA2 dopaminergic receptors, sequence (G1T1Q0 1-443): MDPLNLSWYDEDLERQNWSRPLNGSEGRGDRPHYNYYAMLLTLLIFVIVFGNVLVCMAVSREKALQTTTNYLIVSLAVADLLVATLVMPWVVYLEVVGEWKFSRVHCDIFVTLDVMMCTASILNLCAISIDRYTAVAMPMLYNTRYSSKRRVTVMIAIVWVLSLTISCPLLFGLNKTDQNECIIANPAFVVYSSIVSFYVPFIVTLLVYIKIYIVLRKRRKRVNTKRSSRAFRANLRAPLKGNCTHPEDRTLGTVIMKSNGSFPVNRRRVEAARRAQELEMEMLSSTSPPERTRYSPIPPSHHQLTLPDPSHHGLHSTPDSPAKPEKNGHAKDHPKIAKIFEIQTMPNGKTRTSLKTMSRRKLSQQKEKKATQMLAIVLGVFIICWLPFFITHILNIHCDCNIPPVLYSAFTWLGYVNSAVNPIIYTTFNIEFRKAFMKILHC

## CNC1CCc2c(ccc(OC(=O)C(C)C)c2OC(=O)C(C)C)C1 (stereo not shown) [CHF 1035, 5,6-Diisobutyroyloxy-2-methylaminotetralin]
α2 adrenergic receptors
  IC50: 2650 nM
α2-adrenergic receptors; isolated neuronally-stimulated rat vas deferens, read-out: IC50, 50% inhibition of the electrically induced contraction
  IC50: 71.4 nM
α2-adrenergic receptors; rat vas deferens
  more potent than dopamine: ~70 times
[1]
  effect in presence of selective DA2-antagonist domperidone: competitively antagonized
  more potent than dopamine: approximately 3 times
[1]; read-out: IC50, 50% inhibition of the electrically induced contraction
  IC50: 29.6 nM
Anesthetized rats; 1 mg/kg i.d., ICI 118.551 0.2 mg/kg i.v. 10 min before
  peak hypotensive effect after pretreatment with the β2-antagonist: significantly reduced
Anesthetized rats; 1 mg/kg i.d., ICI 118.551 and domperidone
  hypotensive response after both antagonists combined: completely abolished
Anesthetized rats; 1 mg/kg i.d., domperidone i.v. 10 min before, hypotensive response significantly shortened
  time to complete recovery of basal value after DA2-antagonist pretreatment: 60 min
Anesthetized rats; 1 mg/kg intraduodenal, 5 min after administration
  hypotensive response, peak effect, reduction from basal value: about 45%
Anesthetized rats; 1 mg/kg intraduodenal, 2 hours after administration
  hypotensive response, reduction from basal value: about 20%
Anesthetized rats; intraduodenal, 1 mg/kg
  blood pressure: markedly reduced
  heart rate: without affecting
[2]; 5 mg
  reduction in the peripheral vascular resistances: −15.4%
[2]; [6]
  adrenalin (E) plasmatic level: 42 pg/mL
  noradrenaline (NE) plasmatic level: 301 pg/mL
[2]; 5 mg, after-dose (AD)
  cardiac index (CI): 3.4 L/min/m^2
  heart rate (HR): 78 bpm
  mean blood pressure (BPm): 82 mmHg
  pulmonary capillary wedge pressure (PCWP): 18 mmHg
  stroke volume index (SVI): 43 ml/min/m^2
  systemic vascular resistance (SVR): 1052 dyneseccm^−5
[2]; [7]
  adrenalin (E) plasmatic level: 56 pg/mL
  noradrenaline (NE) plasmatic level: 299 pg/mL
[2]; 5 mg, pre-dose (PD)
  cardiac index (CI): 3 L/min/m^2
  heart rate (HR): 74 bpm
  mean blood pressure (BPm): 85 mmHg
  pulmonary capillary wedge pressure (PCWP): 22 mmHg
  systemic vascular resistance (SVR): 1243 dyneseccm^−5
[2]; 10 mg
  reduction in the peripheral vascular resistances: −27.0%
[2]; [8]
  adrenalin (E) plasmatic level: 62 pg/mL
  noradrenaline (NE) plasmatic level: 244 pg/mL
[2]; 10 mg, after-dose (AD)
  cardiac index (CI): 3.4 L/min/m^2
  heart rate (HR): 76 bpm
  mean blood pressure (BPm): 77 mmHg
  pulmonary capillary wedge pressure (PCWP): 16 mmHg
  stroke volume index (SVI): 45 ml/min/m^2
  systemic vascular resistance (SVR): 1009 dyneseccm^−5
[2]; [9]
  adrenalin (E) plasmatic level: 65 pg/mL
  noradrenaline (NE) plasmatic level: 285 pg/mL
[2]; 10 mg, pre-dose (PD)
  cardiac index (CI): 2.7 L/min/m^2
  heart rate (HR): 70 bpm
  mean blood pressure (BPm): 85 mmHg
  pulmonary capillary wedge pressure (PCWP): 20 mmHg
  stroke volume index (SVI): 38 ml/min/m^2
  systemic vascular resistance (SVR): 1382 dyneseccm^−5
[2]; 15 mg
  reduction in the peripheral vascular resistances: −35.2%
[2]; [10]
  adrenalin (E) plasmatic level: 58 pg/mL
  noradrenaline (NE) plasmatic level: 308 pg/mL
[2]; 15 mg, after-dose (AD)
  cardiac index (CI): 4 L/min/m^2
  heart rate (HR): 80 bpm
  mean blood pressure (BPm): 79 mmHg
  pulmonary capillary wedge pressure (PCWP): 16 mmHg
  stroke volume index (SVI): 49 ml/min/m^2
  systemic vascular resistance (SVR): 881 dyneseccm^−5
[2]; [11]
  adrenalin (E) plasmatic level: 53 pg/mL
  noradrenaline (NE) plasmatic level: 340 pg/mL
[2]; 15 mg, pre-dose (PD)
  cardiac index (CI): 3 L/min/m^2
  heart rate (HR): 74 bpm
  mean blood pressure (BPm): 87 mmHg
  pulmonary capillary wedge pressure (PCWP): 21 mmHg
  stroke volume index (SVI): 40 ml/min/m^2
  systemic vascular resistance (SVR): 1359 dyneseccm^−5
[2]; 5, 10, 15 mg, only a relative increase
  increase in heart rate: not clinically significant
[2]; during systemic vasodilation
  catecholamines plasmatic levels: without inducing any reflected increase
[3]; 5, 10, 15 mg add-on to diuretics or diuretics and ACE inhibitor, day 1 to 28
  functional and clinical condition of patients, compared to placebo: improved
[3]; patients with congestive heart failure
  duration of pharmacodynamic effects versus serum levels of the drug: last longer than detectable serum levels
[4]
  diuresis: increases
  natriuresis and kaliuresis: without affecting
[5]
  transformation by plasma and tissue esterases into the active desesterified form: Immediately after the administration
